Assay results taken from US20220144823A1, “PYRAZOLOPYRIDINE DERIVATIVES AS INHIBITORS OF PASK” (Galapagos NV, priority 2019, published 2022).

Assays:
[1] = molecular target: T1, human PASK (Homo sapiens, UniProt Q96RG2); assay: 33P radioactive kinase assay; format: biochemical; conditions: 33P radioactive PASK kinase assay, 10 μM ATP, ZIPtide 1 μM
T1 construct: purchased ThermoFisher Scientific PR7013A
Summary of the method: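 Human PASK phosphorylation of ZIPtide peptide was measured by incorporation from [^33P]-ATP plus unlabelled ATP, with a 10-point, 1/5 dilution series from 0.2 or 2 mM DMSO stocks and 1% DMSO final. Reactions were stopped with phosphoric acid, filter-harvested, washed and scintillation-counted. Percentage inhibition gave dose–response curves and averaged IC50s.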

[2] = molecular target: T2, autophosphorylation of PASK at position Thr307 in Hek293 cells overexpressing PASK (Homo sapiens, UniProt Q96RG2); assay: PASK autophosphorylation ELISA assay; format: cell-based; conditions: 24 h, ELISA readout
T2 construct: expressed in transfected cells; host or cells: Hek293
T2 sequence (Q96RG2 with tags, fused parts or gaps): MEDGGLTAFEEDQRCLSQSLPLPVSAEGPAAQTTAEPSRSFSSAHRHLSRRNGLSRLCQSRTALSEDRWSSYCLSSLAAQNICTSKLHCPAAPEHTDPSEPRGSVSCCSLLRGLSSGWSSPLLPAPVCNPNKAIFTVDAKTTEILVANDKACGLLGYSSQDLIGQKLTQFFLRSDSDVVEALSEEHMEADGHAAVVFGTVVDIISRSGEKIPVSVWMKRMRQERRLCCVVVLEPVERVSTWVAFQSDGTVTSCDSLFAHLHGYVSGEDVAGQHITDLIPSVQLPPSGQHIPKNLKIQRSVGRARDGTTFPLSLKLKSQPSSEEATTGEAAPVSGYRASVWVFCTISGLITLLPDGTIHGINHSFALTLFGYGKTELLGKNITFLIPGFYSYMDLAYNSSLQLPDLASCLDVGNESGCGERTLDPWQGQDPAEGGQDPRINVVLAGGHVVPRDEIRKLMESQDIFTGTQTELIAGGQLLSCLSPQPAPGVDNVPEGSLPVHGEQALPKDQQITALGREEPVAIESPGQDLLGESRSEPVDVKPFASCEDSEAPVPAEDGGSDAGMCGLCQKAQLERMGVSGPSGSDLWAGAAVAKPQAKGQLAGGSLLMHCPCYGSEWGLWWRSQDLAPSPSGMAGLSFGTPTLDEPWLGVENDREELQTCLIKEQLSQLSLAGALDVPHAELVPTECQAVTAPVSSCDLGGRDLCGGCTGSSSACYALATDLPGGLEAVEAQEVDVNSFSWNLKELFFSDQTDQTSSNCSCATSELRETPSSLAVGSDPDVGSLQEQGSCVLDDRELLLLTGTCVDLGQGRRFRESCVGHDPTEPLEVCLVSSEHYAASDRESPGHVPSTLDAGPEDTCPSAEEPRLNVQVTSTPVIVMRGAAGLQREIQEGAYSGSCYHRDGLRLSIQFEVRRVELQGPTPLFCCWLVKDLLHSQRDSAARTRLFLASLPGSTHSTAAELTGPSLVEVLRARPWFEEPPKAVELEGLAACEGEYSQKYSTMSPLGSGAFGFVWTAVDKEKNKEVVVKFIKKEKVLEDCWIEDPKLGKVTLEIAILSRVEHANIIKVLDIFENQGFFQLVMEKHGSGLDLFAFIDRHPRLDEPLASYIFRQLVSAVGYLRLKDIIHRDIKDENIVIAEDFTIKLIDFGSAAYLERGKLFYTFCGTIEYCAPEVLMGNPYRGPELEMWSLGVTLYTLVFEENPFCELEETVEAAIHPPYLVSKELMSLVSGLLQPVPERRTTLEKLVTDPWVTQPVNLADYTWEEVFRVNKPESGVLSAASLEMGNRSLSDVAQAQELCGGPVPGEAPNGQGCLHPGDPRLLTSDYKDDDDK
Method: The compounds of the invention are profiled in a cellular assay to determine their capacity to reduce the autophosphorylation levels of PASK at position Thr307 in Hek293 cells overexpressing PASK, using an ELISA-based readout.
At day 1, a 96-well cell assay plate is coated with poly-D-lysine (50 μL/well of a 0.05 mg/mL solution in PBS) and incubated for 1 h at 37° C. The plate is subsequently washed once with PBS and stored dry at RT until further use. Hek293 cells are transfected with a pcDNA3.1-PASK(FL,WT)-FLAG construct (SEQ ID1) and seeded in culture medium (DMEM+10% FBS) in a poly-D-lysine coated 96-well plate (0.3 μL JetPEI DNA transfection reagent (Polyplus-transfection SA, Cat #101-40), 10 ng construct and 90 ng pBluescript, 60000 cells per well). […] The cell plate is incubated overnight at 37° C., 5% CO2.
At day 2, the medium of the assay plate is removed and 100 μL of fresh medium (DMEM+10% FBS) is added to the plate. Cell plate is further incubated overnight at 37° C., 5% CO2. This to allow further expression of PASK protein.
At day 3, the medium is removed and replaced with 100 μL of serum free medium (DMEM). Test compound is added to the plate (8 points concentration curve with 1/3 dilution steps starting from 30 μM final concentration in 0.3% DMSO final). In the positive and negative control wells of the plate, 0.3% DMSO final is added. For each tested condition, duplicates are made for ELISA readout. Cell plate is incubated 24 h at 37° C., 5% CO2.
At day 4, the medium is removed and the plate is washed once with 100 μL/well PBS. Cells are lysed by adding 50 μL/well western blot lysis buffer (20 mM Tris pH 7.5, 150 mM NaCl and 1% Triton) to the plate. The assay plate is stored at −80° C. and thawed to perform the ELISA readout.
At day 1, the ELISA plate is coated with the mouse anti-FLAG antibody (2 μg/mL diluted in PBS, 100 μL/well) and incubated overnight at 4° C.
At day 2, the plate is washed once with 150 μL/well PBS. 200 μL/well blocking buffer (PBS with 3% BSA) is added and the plate is incubated for 4 h at RT. The plate is washed with 150 μL/well high salt washing buffer (20 mM Na2HPO4, 0.5% Triton X-100, 0.1% SDS, 0.1% BSA and 1 M NaCl) followed by one wash with 150 μL/well low salt washing buffer (20 mM Na2HPO4, 0.5% Triton X-100, 0.1% SDS, 0.1% BSA and 150 mM NaCl). Meanwhile, the cell lysate plate is thawed, two wells of the same condition are pooled (2×50 μL) and added to the ELISA plate. The ELISA plate is incubated overnight at 4° C.
At day 3, the ELISA plate is washed twice with 150 μL/well high salt washing buffer followed by two washes with low salt washing buffer. 100 μL/well detection antibody for pPASK (phospho-Akt substrate (RXXS*/T*) (110B7E) rabbit antibody (Cell Signaling Technology, Inc., Cat #9614) 2 μg/mL diluted in PBS with 3% BSA and 1×Halt™ protease and phosphatase inhibitor cocktail (Thermo Fisher Scientific, Inc., Cat #78447)) is added and incubated for 2 h at RT. The plate is washed twice with high and low salt wash buffer (150 μL/well) and 100 μL/well of an HRP antibody (swine anti-rabbit HRP antibody (Agilent Technologies, Inc., Cat #P039901) diluted 1/2000 in PBS with 3% BSA and 1×Halt™ protease and phosphatase inhibitor cocktail) is added to the plate, followed by an incubation for 1 h at RT in the dark (plate sealed with aluminum seal). The plate is washed twice with high and low salt wash buffer (150 μL/well) and 100 μL/well of SuperSignal™ ELISA Pico Chemiluminescent Substrate (Thermo Fisher Scientific, Inc., Cat #37070)(premix part 1 and part 2, 1/1) is added. The plate is incubated for 4 min at RT before measuring luminescence on the Luminoskan™ Ascent (Thermo Fisher Scientific, Inc.) (PMT default voltage; 100 ms integration time). […]

[3] = molecular target: T1, human PASK; assay: ADP-Glo kinase assay; format: biochemical; conditions: ADPGlo PASK kinase assay, 25 μM ATP, ZIPtide 25 μM
Summary of the method: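 Human recombinant PASK phosphorylating ZIPtide peptide with ATP, 120 min at RT; compounds in 10-point 1/5 dilution series, 1% DMSO final. ADP formed measured by ADP-Glo luminescence after ATP depletion; percent inhibition fitted to dose-response curves for averaged IC50.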

T1 sequence (Q96RG2 whole entry): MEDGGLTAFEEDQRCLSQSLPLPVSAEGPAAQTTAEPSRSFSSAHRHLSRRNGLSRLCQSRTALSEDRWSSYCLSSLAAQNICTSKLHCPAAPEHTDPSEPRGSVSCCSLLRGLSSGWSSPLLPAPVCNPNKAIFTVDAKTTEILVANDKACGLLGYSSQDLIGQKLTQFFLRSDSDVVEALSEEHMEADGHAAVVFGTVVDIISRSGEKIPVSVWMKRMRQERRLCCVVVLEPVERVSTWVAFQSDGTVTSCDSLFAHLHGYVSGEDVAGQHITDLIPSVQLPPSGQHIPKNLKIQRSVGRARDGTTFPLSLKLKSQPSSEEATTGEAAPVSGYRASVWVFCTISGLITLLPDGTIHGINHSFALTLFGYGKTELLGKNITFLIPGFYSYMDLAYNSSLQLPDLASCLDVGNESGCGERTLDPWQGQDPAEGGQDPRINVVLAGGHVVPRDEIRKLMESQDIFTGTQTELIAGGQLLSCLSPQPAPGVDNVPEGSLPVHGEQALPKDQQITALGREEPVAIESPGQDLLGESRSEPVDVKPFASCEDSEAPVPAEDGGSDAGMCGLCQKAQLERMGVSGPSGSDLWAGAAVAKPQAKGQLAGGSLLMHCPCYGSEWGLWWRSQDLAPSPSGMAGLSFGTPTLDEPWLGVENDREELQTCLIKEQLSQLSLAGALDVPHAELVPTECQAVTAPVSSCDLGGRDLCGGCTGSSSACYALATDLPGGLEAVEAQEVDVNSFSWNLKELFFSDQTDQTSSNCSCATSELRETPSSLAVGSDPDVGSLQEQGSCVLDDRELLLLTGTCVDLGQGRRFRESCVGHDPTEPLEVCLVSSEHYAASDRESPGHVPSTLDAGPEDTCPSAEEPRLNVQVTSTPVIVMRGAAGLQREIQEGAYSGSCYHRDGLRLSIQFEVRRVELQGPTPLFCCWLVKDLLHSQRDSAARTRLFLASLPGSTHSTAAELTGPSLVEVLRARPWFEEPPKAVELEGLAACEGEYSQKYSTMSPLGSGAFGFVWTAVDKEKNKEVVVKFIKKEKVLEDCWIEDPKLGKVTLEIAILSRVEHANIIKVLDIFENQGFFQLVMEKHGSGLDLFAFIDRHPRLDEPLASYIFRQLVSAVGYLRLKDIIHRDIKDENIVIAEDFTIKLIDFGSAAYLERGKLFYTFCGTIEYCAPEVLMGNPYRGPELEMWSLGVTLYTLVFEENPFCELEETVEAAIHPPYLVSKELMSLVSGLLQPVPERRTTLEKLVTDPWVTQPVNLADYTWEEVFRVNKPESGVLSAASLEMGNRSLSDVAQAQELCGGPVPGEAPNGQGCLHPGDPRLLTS

Row | Structure (SMILES) | IC50 [1] | IC50 [2] | IC50 [3]
1 | Cc1nn(C(C)C)c(C)c1-c1cnn2ccc(-c3nc(C4CC4)c(C(=O)O)s3)cc12 [Cpd 39, 4-cyclopropyl-2-[3-(1-isopropyl-3,5-dimethyl-pyrazol-4-yl)pyrazolo[1,5-a]pyridin-5-yl]thiazole-5-carboxylic acid] | 0.01 to 10 nM | 0.1 to 500 nM | 0.01 to 10 nM
2 | Cc1nn(CC(F)(F)F)c(C)c1-c1cnn2ccc(-c3cc(C(=O)O)co3)cc12 [Cpd 40, 5-[3-[3,5-dimethyl-1-(2,2,2-trifluoroethyl)pyrazol-4-yl]pyrazolo[1,5-a]pyridin-5-yl]furan-3-carboxylic acid] | 0.01 to 10 nM | 1000 to 5000 nM | 0.01 to 10 nM
3 | Cc1nn(CC(F)(F)F)c(C)c1-c1cnn2ccc(-c3nc(C4CC4)c(C(=O)O)s3)cc12 [Cpd 42, 4-cyclopropyl-2-[3-[3,5-dimethyl-1-(2,2,2-trifluoroethyl)pyrazol-4-yl]pyrazolo[1,5-a]pyridin-5-yl]thiazole-5-carboxylic acid] | 0.01 to 10 nM | 0.1 to 500 nM | 0.01 to 10 nM
4 | Cc1nn(C)c(C)c1-c1cnn2ccc(-c3cc(C(N)=O)co3)cc12 [Cpd 43, 5-[3-(1,3,5-trimethylpyrazol-4-yl)pyrazolo[1,5-a]pyridin-5-yl]furan-3-carboxamide] | 0.01 to 10 nM | 1000 to 5000 nM | 0.01 to 10 nM
